From US12428394B2, “2,4-disubstituted pyrimidine derivative, preparation method therefor and use thereof” (CHENGDU ZENITAR BIOMEDICAL TECHNOLOGY CO., LTD., priority 2019, dated 2025) come the findings set out here.

The assay concerns SET-2 cells (JAK2 V617F). As to the kind of experiment: Inhibition of cell proliferation by MTT experiment, SET-2. Format: cell-based. The settings on record: Homo sapiens, SET-2, 72 h, read-out: IC50 value on cell proliferation inhibition, SET-2 (V617F). The method in brief:
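MTT assay in MV4-11, MOLM-13 (FLT3-ITD) and SET-2 (JAK2 V617F) cells at 10,000–15,000 cells/well in IMDM with 10% FBS. Cells are exposed to compound for 72 h at 37 °C, then to MTT for 1–3 h. IC50 is fitted from inhibition rates across concentrations.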

Take `Cc1cnc(Nc2ccc(N3CCC(N(C)CCO)CC3)c(F)c2)nc1-c1cnn(C(C)C)c1` [CLJ-44, 5-methyl-N-(3-fluoro-4-(4-N-hydroxyethyl-4-N-methylaminopiperidine-1-yl)phenyl)-4-(1-isopropyl-1H-pyrazole-4-yl) pyrimidine-2-amine]: the IC50 lay within 0.01 to 0.1 µM.
